Experimental data from US9586986B2, “Substituted 7-deazapurine ribonucleosides for therapeutic uses” (Institute of Organic Chemistry and Biochemistry ASCR, v.v.i., priority 2014, dated 2017).
Read-outs that look alike come from different tables or passages of the source.

What was measured:
Format in all cases: cell-based
BJ = assay: Cytostatic/cytotoxic MTT assay, BJ fibroblasts; details: Homo sapiens, 72 h, read-out: MTT, IC50 BJ
In short: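 72 h exposure, duplicate four-fold dilutions; MTT 1-4 h, SDS solubilisation, A540. IC50 = 50% growth inhibition from dose-response fit. MRC-5 and BJ are non-malignant human fibroblasts.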

HCT116 = assay: Cytostatic/cytotoxic MTT assay, HCT116; details: Homo sapiens, read-out: MTT, IC50 HCT116
In short: (§1)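 Human cancer lines, including daunorubicin-resistant CEM-DNR (mrp-1/mdr-1 overexpressing) and paclitaxel-resistant K562-TAX (mdr-1), seeded 25,000-30,000 cells/well, pre-incubated 24 h, then treated in duplicate with four-fold dilutions for 72 h at 37° C, 5% CO2. MTT read-out at 540 nm; IC50 from dose-response curves.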

CEM-DNR-bulk = assay: Cytostatic/cytotoxic MTT assay, CEM-DNR-bulk; details: Homo sapiens, 72 h, read-out: MTT, IC50 CEM-DNR-bulk
In short: as §1

HL60 = assay: XTT cytotoxicity assay, HL-60; details: Homo sapiens, read-out: XTT, IC50 HL60
In short: (§2)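 Cells seeded at 10,000 per well, compounds added after 24 h and incubated 72 h, then XTT (with N-methyl dibenzopyrazine methyl sulfate) for 2 h; absorbance at 495 nm. IC50 by non-linear regression.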

HeLa S3 = assay: XTT cytotoxicity assay, HeLa S3; details: Homo sapiens, read-out: XTT, IC50 HeLa S3
In short: as §2

CCRF-CEM = assay: Cytostatic/cytotoxic MTT assay, CCRF-CEM; details: Homo sapiens, read-out: MTT, IC50 CCRF-CEM
In short: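 Growth inhibition is measured by MTT metabolic staining after a 3-day compound treatment at 37 °C, 5% CO2. Formazan is dissolved overnight in 10% aqueous SDS, pH 5.5, and read at 540 nm.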

Row | SMILES | IC50 (BJ; non-malignant fibroblasts) | IC50 (HCT116; HCT-116, 72 h incubation) | IC50 (CEM-DNR-bulk; daunorubicin resistant subline) | IC50 (HL60; HL-60, 72 h incubation) | IC50 (HeLa S3; HeLa S3, 72 h incubation) | IC50 (CCRF-CEM; 72 h incubation) | IC50 (BJ) | IC50 (HCT116; HCT-116, 72 h) | IC50 (CEM-DNR-bulk) | IC50 (HL60; HL-60, 72 h) | IC50 (HeLa S3; HeLa S3, 72 h) | IC50 (CCRF-CEM; 72 h)
1 | CN(C)c1ncnc2c1c(-c1ccoc1)cn2[C@@H]1O[C@H](CO)[C@@H](O)[C@H]1O [Compound 4b, 4-Dimethylamino-5-(furan-3-yl)-7-(β-D-ribofuranosyl)-7H-pyrrolo[2,3-d]pyrimidine] | 99.2 µM | > 20 µM | > 20 µM | 1.16 µM | 9.06 µM | 13.3 µM | – | – | – | – | – | –
2 | CN(C)c1ncnc2c1c(-c1cccs1)cn2[C@@H]1O[C@H](CO)[C@@H](O)[C@H]1O [Compound 4c, 4-Dimethylamino-7-(β-D-ribofuranosyl)-5-(thiophen-2-yl)-7H-pyrrolo[2,3-d]pyrimidine] | > 100 µM | > 20 µM | > 20 µM | 11.8 µM | > 20 µM | > 20 µM | – | – | – | – | – | –
3 | CN(C)c1ncnc2c1c(-c1ccsc1)cn2[C@@H]1O[C@H](CO)[C@@H](O)[C@H]1O [Compound 4d, 4-Dimethylamino-7-(β-D-ribofuranosyl)-5-(thiophen-3-yl)-7H-pyrrolo[2,3-d]pyrimidine] | > 100 µM | > 20 µM | > 20 µM | 1.92 µM | > 15 µM | 3.48 µM | – | – | – | – | – | –
4 | CN(C)c1ncnc2c1c(-c1ccccc1)cn2[C@@H]1O[C@H](CO)[C@@H](O)[C@H]1O [Compound 4e, 4-Dimethylamino-5-phenyl-7-(β-D-ribofuranosyl)-7H-pyrrolo[2,3-d]pyrimidine] | > 100 µM | > 20 µM | > 20 µM | > 20 µM | > 20 µM | > 20 µM | – | – | – | – | – | –
5 | CN(C)c1ncnc2c1c(-c1cc3ccccc3o1)cn2[C@@H]1O[C@H](CO)[C@@H](O)[C@H]1O [Compound 4f, 5-(Benzofuran-2-yl)-4-dimethylamino-7-(β-D-ribofuranosyl)-7H-pyrrolo[2,3-d]pyrimidine] | > 100 µM | > 20 µM | > 20 µM | > 20 µM | > 20 µM | > 20 µM | – | – | – | – | – | –
6 | C#Cc1cn([C@@H]2O[C@H](CO)[C@@H](O)[C@H]2O)c2ncnc(N(C)C)c12 [Compound 4g, 4-Dimethylamino-5-ethynyl-7-(β-D-ribofuranosyl)-7H-pyrrolo[2,3-d]pyrimidine] | 0.41 µM | 0.18 µM | 0.24 µM | 0.29 µM | 0.81 µM | 0.09 µM | – | – | – | – | – | –
7 | CN(C)c1ncnc2c1c(I)cn2[C@@H]1O[C@H](CO)[C@@H](O)[C@H]1O [Compound 4h, 4-Dimethylamino-5-iodo-7-(β-D-ribofuranosyl)-7H-pyrrolo[2,3-d]pyrimidine] | 45.7 µM | 0.09 µM | 0.1 µM | 0.05 µM | 0.19 µM | 1.59 µM | – | – | – | – | – | –
8 | Cc1ncnc2c1c(-c1ccco1)cn2[C@@H]1O[C@H](CO)[C@@H](O)[C@H]1O [Compound 5a, 5-(Furan-2-yl)-4-methyl-7-(β-D-ribofuranosyl)-7H-pyrrolo[2,3-d]pyrimidine] | 0.07 µM | 0.04 µM | 0.07 µM | 0.21 µM | 1.33 µM | 0.04 µM | – | – | – | – | – | –
9 | Cc1ncnc2c1c(-c1ccoc1)cn2[C@@H]1O[C@H](CO)[C@@H](O)[C@H]1O [Compound 5b, 5-(Furan-3-yl)-4-methyl-7-(β-D-ribofuranosyl)-7H-pyrrolo[2,3-d]pyrimidine] | 89.2 µM | > 20 µM | > 20 µM | > 15 µM | > 20 µM | > 20 µM | – | – | – | – | – | –
10 | Cc1ncnc2c1c(-c1cccs1)cn2[C@@H]1O[C@H](CO)[C@@H](O)[C@H]1O [Compound 5c, 4-Methyl-7-(β-D-ribofuranosyl)-5-(thiophen-2-yl)-7H-pyrrolo[2,3-d]pyrimidine] | > 100 µM | > 20 µM | > 20 µM | 5.73 µM | > 15 µM | > 20 µM | – | – | – | – | – | –
11 | Cc1ncnc2c1c(-c1ccsc1)cn2[C@@H]1O[C@H](CO)[C@@H](O)[C@H]1O [Compound 5d, 4-Methyl-7-(β-D-ribofuranosyl)-5-(thiophen-3-yl)-7H-pyrrolo[2,3-d]pyrimidine] | 96.9 µM | 0.46 µM | 8.56 µM | 0.35 µM | 14.3 µM | 11.2 µM | – | – | – | – | – | –
12 | Cc1ncnc2c1c(-c1ccccc1)cn2[C@@H]1O[C@H](CO)[C@@H](O)[C@H]1O [Compound 5e, 4-Methyl-5-phenyl-7-(β-D-ribofuranosyl)-7H-pyrrolo[2,3-d]pyrimidine] | > 100 µM | > 100 µM | > 20 µM | > 20 µM | > 20 µM | > 20 µM | – | – | – | – | – | –
13 | Cc1ncnc2c1c(-c1cc3ccccc3o1)cn2[C@@H]1O[C@H](CO)[C@@H](O)[C@H]1O [Compound 5f, 5-(Benzofuran-2-yl)-4-methyl-7-(β-D-ribofuranosyl)-7H-pyrrolo[2,3-d]pyrimidine] | 93.9 µM | > 20 µM | > 20 µM | > 20 µM | > 20 µM | 17.3 µM | – | – | – | – | – | –
14 | C#Cc1cn([C@@H]2O[C@H](CO)[C@@H](O)[C@H]2O)c2ncnc(C)c12 [Compound 5g, 5-Ethynyl-4-methyl-7-(β-D-ribofuranosyl)-7H-pyrrolo[2,3-d]pyrimidine] | 0.05 µM | > 20 µM | 0.16 µM | 1.11 µM | 14.7 µM | 5.6 µM | – | – | – | – | – | –
15 | COc1ncnc2c1ccn2[C@@H]1O[C@H](CO)[C@@H](O)[C@H]1O [RC1, reference compound] | > 100 µM | > 20 µM | > 20 µM | > 20 µM | > 20 µM | > 20 µM | – | – | – | – | – | –
16 | CSc1ncnc2c1ccn2[C@@H]1O[C@H](CO)[C@@H](O)[C@H]1O [RC2, reference compound] | – | – | – | – | – | – | > 100 µM | > 20 µM | 3.61 µM | 7.19 µM | 11.9 µM | > 20 µM
17 | CNc1ncnc2c1ccn2[C@@H]1O[C@H](CO)[C@@H](O)[C@H]1O [RC3, reference compound] | 91.4 µM | > 20 µM | 4.89 µM | 12.8 µM | > 20 µM | > 20 µM | – | – | – | – | – | –
18 | CN(C)c1ncnc2c1ccn2[C@@H]1O[C@H](CO)[C@@H](O)[C@H]1O [RC4, reference compound] | 5.3 µM | 18.4 µM | 2.6 µM | 0.87 µM | 10.6 µM | 0.63 µM | – | – | – | – | – | –
19 | Cc1ncnc2c1ccn2[C@@H]1O[C@H](CO)[C@@H](O)[C@H]1O [RC5, 4-Methyl-7-(β-D-ribofuranosyl)-7H-pyrrolo[2,3-d]pyrimidine, reference compound] | – | – | – | – | – | – | 0.07 µM | 0.03 µM | 0.05 µM | 0.02 µM | 0.02 µM | 0.01 µM
